{"source": "patent US6265445A", "about": "“Antiarrhythmic compounds” (priority 1997, dated 2001)", "key": {"[1]": {"test_system": "right ventricular papillary muscle", "assay": "Measurement of the contractile force in vitro", "parameters": "species or system rabbits", "settings": "1 Hz; expected therapeutic concentration", "experimental": "The method used is essentially in agreement with the method of Virag et al. [Gen. Pharmac. 27, pp. 551-556 (1996)].\nPapillary muscles of hearts of rabbits (weighing 2 to 3 kg each) were prepared and placed into an organ bath (37° C.) containing modified Tyrode's nutrient medium. The preparations were stimulated by point-stimulation with a basal frequency of 1 Hz. The contractile force was measured by using an auxotonic method. The compounds under test were directly added into the organ bath after dilution of the stock solution according to the final concentration desired. The effects of compounds were observed after an incubation period of 30 to 45 minutes.\nUsing this method used information can be obtained concerning the direct cardiac effects of the compounds investigated. The effect of the compound of Example 15 on the contractile force is illustrated on the right ventricular papillary muscle at a frequency of 1 Hz in FIG. 2."}, "[2]": {"test_system": "occlusion and reperfusion arrhythmias in anaesthetized rabbits", "assay": "Occlusion and reperfusion induced arrhythmias following acute coronary artery ligation in anaesthetized rabbits", "assay_type": "in vivo, male rabbits", "settings": "0.03 mg/kg", "experimental": "The method used is essentially in agreement with the method of Thiemermann et al. [Br. J. Pharmacol. 97, pp. 401-408 (1989)].\nA loose surgical thread loop was placed round the left circumflex coronary artery of the heart following thoracotomy in pentobarbital (30 mg/kg i.v.) anaesthetized male rabbits (weighing 2 to 3 kg); both ends of the thread loop were led out from the chest through an elastic tube. Standard electrocardiogram was registered by using needle electrodes under the skin. The blood pressure of animals was continuously measured by using a catheter placed into the common carotid artery. After stabilization of the blood pressure and heart frequency, the loose loop was tightened to establish a regional myocardial ischaemia. After 10 minutes of ischaemia, the ligature was released and a reperfusion for 10 minutes was established. The survival, the incidence of arrhythmias, the time of onset of arrhythmia and the length of episodes were registered. The animals received physiological saline solution (control) intravenously (2 ml/kg) or 0.03 mg/kg of the compound of Example 15 or a 3 mg/kg dose of d-sotalol at 5 minutes before the occlusion.\nBy using this method, it can be stated whether the compound under test would be effective for the protection from arrhythmias following coronary artery ligation."}, "[3]": {"test_system": "Purkinje's fibres isolated from dog heart", "assay": "Intracellular microelectrode technique: action potential parameters, Purkinje's fibres", "parameters": "species or system mongrel dogs", "experimental": "The method used is essentially in agreement with the method of Papp et al. [J. Cardiovascular Pharmacol. Ther. 1, 287-296 (1996)].\nRight ventricular papillary muscle and Purkinje's fibres were prepared from the hearts of mongrel dogs (weighing 5 to 10 kg each). The preparations were placed into an organ bath (37° C.) containing modified Tyrode's nutrient medium. The preparations were excited by a basal frequency of 1 Hz. During the experiments, the frequency of stimulation was varied under broad limits by a computer-guided stimulator. The intracellular action potentials were registered by using glass capillary microelectrodes filled with 3 N potassium chloride solution (standard intracellular microelectrode techniques). The resting potential (RP), the amplitude of the action potential (APA) as well as the duration of the action potential (APD) were measured by using an IBM 386 compatible computer by means of an own-developed software. The compounds under test were directly added into the organ bath after dilution of the stock solutions according to the final concentrations desired. The effects of the compounds were observed after an incubation time of 30 to 40 minutes."}, "in vivo": {"assay": "in vivo", "settings": "mouse, in vivo", "experimental": "(§1) Determination of the LD50 Value on Mice\n(§2) Animal: male CDI mice (starved) weighing 20 to 22 g each at the time of treatment.\n(§3) Observation period: 2 weeks.\n(§4) Vehicle: 1 to 2% of Tween-80 in distilled water or in physiological saline, respectively.\n(§5) Treatment volume 0.1 ml/10 g of body-weight."}, "mice": {"test_system": "mice", "assay": "in vivo", "experimental": "as §1, §2, §3, §4, §5"}}, "data": [{"smiles": "Cc1cccc(C)c1OCC(C)N(C)CCc1ccc(NS(C)(=O)=O)cc1.Cl", "note": "(centres unmarked) [Example 15, N-[4-[2-[N-Methyl-N-[2-(2,6-dimethylphenoxy)-1-methylethyl]amino]ethyl]phenyl]methanesulfonamide hydrochloride]", "values": [{"measurement": "negative inotropic action (in words)", "setting": "[1]", "result": "did not induce any negative inotropic action"}, {"measurement": "antiarrhythmic effect against reperfusion arrhythmias (in words)", "setting": "[2]", "result": "strong antiarrhythmic effect"}, {"measurement": "effect on APD on Purkinje's fibres (in words)", "setting": "[3]; 2 μM and 5 μM", "result": "abbreviated APD on Purkinje's fibres of the dog"}, {"measurement": "APA (amplitude of the action potential)", "setting": "[3]; 2 μM, N 3", "result": "112.7 ± 3.9", "unit": "mV"}, {"measurement": "APD50 (time of 50% repolarization)", "setting": "[3]; 2 μM, N 3", "result": "180.7 ± 14.8", "unit": "ms"}, {"measurement": "APD90 (time of 90% repolarization)", "setting": "[3]; 2 μM, N 3", "result": "400.0 ± 47.4", "unit": "ms"}, {"measurement": "MDP (maximal diastolic potential)", "setting": "[3]; 2 μM, N 3", "result": "-81.7 ± 2.4", "unit": "mV"}, {"measurement": "Vmax (maximum rate of depolarization)", "setting": "[3]; 2 μM, N 3", "result": "392.3 ± 23.7", "unit": "V/s"}, {"measurement": "APA", "setting": "[3]; 5 μM, 1 Hz, N = 6", "result": "111.0 ± 2.4", "unit": "mV"}, {"measurement": "APD50", "setting": "[3]; 5 μM, 1 Hz, N = 6", "result": 121.3, "unit": "ms"}, {"measurement": "APD90", "setting": "[3]; 5 μM, 1 Hz, N = 6", "result": 279.0, "unit": "mS"}, {"measurement": "RP", "setting": "[3]; 5 μM, 1 Hz, N = 6", "result": "-86.0 ± 2.0", "unit": "mV"}, {"measurement": "Vmax", "setting": "[3]; 5 μM, 1 Hz, N = 6", "result": 439.3, "unit": "V/s"}, {"measurement": "LD50 at 336 h", "setting": "in vivo; ip", "result": 170, "unit": "mg/kg"}, {"measurement": "LD50 at 336 h", "setting": "in vivo; po", "result": "550 to 650", "unit": "mg/kg"}, {"measurement": "cause of death", "setting": "mice; i.p.", "result": "respiratory paralysis"}, {"measurement": "Mortality", "setting": "mice; i.p. 150 mg/kg", "result": "1/10"}, {"measurement": "Mortality", "setting": "mice; i.p. 175 mg/kg", "result": "7/10"}, {"measurement": "Mortality", "setting": "mice; i.p. 200 mg/kg", "result": "9/10"}, {"measurement": "cause of death", "setting": "mice; p.o.", "result": "respiratory paralysis"}, {"measurement": "Mortality", "setting": "mice; p.o. 500 mg/kg", "result": "0/5"}, {"measurement": "Mortality", "setting": "mice; p.o. 600 mg/kg", "result": "2/5"}, {"measurement": "Mortality", "setting": "mice; p.o. 700 mg/kg", "result": "5/5"}]}]}
